Assay results as given in patent US8835426B2, “Cyclic urea and carbamate inhibitors of 11β-hydroxysteroid dehydrogenase 1” (Vitae Pharmaceuticals, Inc., priority 2007, dated 2014).
pIC50: −log10 of the molar value.

The compounds below were run against T1, purified 11β-HSD1 (recombinant, expressed in E. coli) (Homo sapiens, UniProt P28845) (assay: Inhibition of purified 11β-HSD1, Scintillation Proximity Assay). Conditions: recombinant enzyme, 3H cortisone, NADPH, room temperature.
T1 construct: made in house; host or cells: E. coli
T1 sequence (P28845 whole entry): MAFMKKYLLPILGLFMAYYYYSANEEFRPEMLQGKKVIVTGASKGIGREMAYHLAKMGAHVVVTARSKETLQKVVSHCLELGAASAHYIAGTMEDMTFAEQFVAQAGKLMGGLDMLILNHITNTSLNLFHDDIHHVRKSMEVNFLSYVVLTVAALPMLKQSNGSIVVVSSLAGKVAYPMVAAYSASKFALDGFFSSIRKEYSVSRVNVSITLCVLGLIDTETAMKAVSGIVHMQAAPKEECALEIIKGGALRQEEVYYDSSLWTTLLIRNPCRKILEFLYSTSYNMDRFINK
Type: biochemical
Procedure: The inhibition of purified 11β-HSD1 by compounds of Formula I was measured as follows using a Scintillation Proximity Assay. All reactions were carried out at room temperature in 96 well flexible Microbeta reaction plates. The assay begins by adding 1 microliter of a 0.1 mM solution of a compound of Formula I in DMSO previously diluted in half-log increments (8 points) starting at 1 micromolar final concentration. To this dot was added 50 microliters of substrate solution (50 mM HEPES, pH 7.4, 100 mM KCl, 5 mM NaCl, 2 mM MgCl2 containing […] of ^3H cortisone, 1 mM NADPH). After a 10 minute incubation, 50 microliters of enzyme solution containing 20 nM recombinant 11β-HSD1 (expressed in E. coli, and affinity purified) was added, The reaction was incubated for 90 minutes, and stopped by adding 50 microliters of SPA bead mix (18-β-glycyrrhetinic acid, 10 micromolar final, 5 mg/ml protein A coated YSi SPA beads, and 1-microgram/ml alpha-cortisol antibody (East Coast Biologics). The plate shaken for 120 minutes, and the radioactivity corresponding to ^3H cortisol was measured on a Wallac Microbeta.

| SMILES | pIC50 |
| --- | --- |
| O=C1OC(c2cccc(Cl)c2)CN1CC12CC3CC(CC(C3)C1)C2 (racemic) [Example 9, (±)-3((1-adamantyl)methyl)-5-(3-chlorophenyl)oxazolidin-2-one] | 6.00 to 7.30 |
| CC(C)C[C@H]1CN(C2C3CC4CC2CC(O)(C4)C3)C(=O)O1 (single isomer, unassigned) [Example 13A] | 6.00 to 7.30 |
| CC(C)C[C@H]1CN(C2C3CC4CC2CC(O)(C4)C3)C(=O)O1 (single isomer, unassigned) [Example 13B] | < 6.00 |
| O=C1O[C@H](c2ccccc2)CN1CC12CC3CC(CC(C3)C1)C2 [Example 3, (R)-3((1-adamantyl)methyl)-5-phenyloxazolidin-2-one] | 6.00 to 7.30 |
| O=C1O[C@@H](Cc2ccccc2)CN1CC12CC3CC(CC(C3)C1)C2 [Example 6, (S)-5-benzyl-3-((1-adamantyl)methyl)oxazolidin-2-one] | 6.00 to 7.30 |
| CC[C@H]1CN(CC23CC4CC(CC(C4)C2)C3)C(=O)O1 [Example 10, (S)-3-((1-adamantyl)methyl)-5-ethyloxazolidin-2-one] | 6.00 to 7.30 |
| O=C1OC(c2ccc(O)cc2)CN1CC12CC3CC(CC(C3)C1)C2 (stereo not drawn) [Example 17, 3-(1-adamantylmethyl)-5-(4-hydroxyphenyl)oxazolidin-2-one] | 6.00 to 7.30 |
| CC(C)CC1CCN(CC23CC4CC(CC(C4)C2)C3)C(=O)O1 (stereo not drawn) [Example 23, 3((1-adamantyl)methyl)-6-isobutyl-1,3-oxazinan-2-one] | 6.00 to 7.30 |
| O=C1N[C@H](CO)CN1CC12CC3CC(CC(C3)C1)C2 [Example 24, (S)-1-((1-adamantyl)methyl)-4-(hydroxymethyl)imidazolidin-2-one] | 6.00 to 7.30 |

Further lines, results first:

| pIC50 | SMILES |
| --- | --- |
| 6.00 to 7.30 | O=C1OC(C2CCC(O)CC2)CN1CC12CC3CC(CC(C3)C1)C2 (single isomer, unassigned) [Example 22B, 3-(1-adamantylmethyl)-5-(4-hydroxycyclohexyl)oxazolidin-2-one] |
| 6.00 to 7.30 | O=C1O[C@@H](c2ccccc2)CN1CC1C2CC3CC(C2)CC1C3 (stereo partly drawn) [Example 11, (S)-3((2-adamantyl)methyl)-5-phenyloxazolidin-2-one] |
| 6.00 to 7.30 | O=C1O[C@@H](c2ccccc2)CN1C1C2CC3CC(C2)CC1C3 (stereo partly drawn) [Example 14, (S)-3-(2-adamantyl)-5-phenyloxazolidin-2-one] |
| 6.00 to 7.30 | O=C1O[C@H](c2ccccc2)CN1C1C2CC3CC(C2)CC1C3 (stereo partly drawn) [Example 15, (R)-3-(2-adamantyl)-5-phenyloxazolidin-2-one] |
| 6.00 to 7.30 | O=C1O[C@@H](C2CCCCC2)CN1CC1C2CC3CC(C2)CC1C3 (stereo partly drawn) [Example 19, (S)-3-((2-adamantyl)methyl)-5-cyclohexyloxazolidin-2-one] |
| 6.00 to 7.30 | CC1CCN(CC23CC4CC(CC(C4)C2)C3)C(=O)O1 (stereo not drawn) [Example 26, 3-((1-adamantyl)methyl)-6-methyl-1,3-oxazinan-2-one] |
